In general, Ki refers to a measure of affinity in units of concentration, obtained from inhibition or displacement.

For one assay, the target named is T1, MMP-9 (Homo sapiens, UniProt P14780).
T1 construct: made in house; host or cells: MMP-9-transfected HT1080 cells (spent media)
Description: In vitro MMP inhibition, Ki determination (fluorogenic substrate II). Type of assay: biochemical. Conditions: value not in parenthesis. The method in brief: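 HT1080-derived MMP-9, activated with APMA, trypsin or MMP-3, incubated 1 hr at room temperature with inhibitor and 4 μM fluorogenic substrate II (at or below Km) in pH 7.5 Tris/NaCl/CaCl2 buffer; ex 330/em 420 nm. Ki from Morrison-equation regression, without substrate correction.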

A further assay addresses T2, MMP-2 (Homo sapiens, UniProt P08253).
T2 construct: made in house; host or cells: MMP-2-transfected p2AHT2 cells
T2 sequence (P08253 110-660): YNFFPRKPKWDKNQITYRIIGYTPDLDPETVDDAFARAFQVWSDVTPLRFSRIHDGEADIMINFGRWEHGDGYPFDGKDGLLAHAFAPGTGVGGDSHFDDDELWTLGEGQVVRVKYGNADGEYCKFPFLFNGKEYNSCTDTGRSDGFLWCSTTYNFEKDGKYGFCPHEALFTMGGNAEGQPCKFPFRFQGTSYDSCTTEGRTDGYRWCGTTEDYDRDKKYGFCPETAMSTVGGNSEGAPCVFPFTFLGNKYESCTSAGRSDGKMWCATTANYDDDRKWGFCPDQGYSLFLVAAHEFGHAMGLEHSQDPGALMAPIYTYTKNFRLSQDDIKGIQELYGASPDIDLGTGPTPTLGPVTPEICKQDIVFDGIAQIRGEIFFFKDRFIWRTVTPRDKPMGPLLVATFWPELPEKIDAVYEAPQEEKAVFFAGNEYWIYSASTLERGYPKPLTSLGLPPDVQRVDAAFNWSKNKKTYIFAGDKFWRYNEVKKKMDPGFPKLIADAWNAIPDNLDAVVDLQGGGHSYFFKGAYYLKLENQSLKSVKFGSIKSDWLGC
The description is as above. Type of assay: biochemical. To be noted: value not in parenthesis; read-out: MMP-2 Ki.

T1 sequence (P14780 107-707 limits assumed): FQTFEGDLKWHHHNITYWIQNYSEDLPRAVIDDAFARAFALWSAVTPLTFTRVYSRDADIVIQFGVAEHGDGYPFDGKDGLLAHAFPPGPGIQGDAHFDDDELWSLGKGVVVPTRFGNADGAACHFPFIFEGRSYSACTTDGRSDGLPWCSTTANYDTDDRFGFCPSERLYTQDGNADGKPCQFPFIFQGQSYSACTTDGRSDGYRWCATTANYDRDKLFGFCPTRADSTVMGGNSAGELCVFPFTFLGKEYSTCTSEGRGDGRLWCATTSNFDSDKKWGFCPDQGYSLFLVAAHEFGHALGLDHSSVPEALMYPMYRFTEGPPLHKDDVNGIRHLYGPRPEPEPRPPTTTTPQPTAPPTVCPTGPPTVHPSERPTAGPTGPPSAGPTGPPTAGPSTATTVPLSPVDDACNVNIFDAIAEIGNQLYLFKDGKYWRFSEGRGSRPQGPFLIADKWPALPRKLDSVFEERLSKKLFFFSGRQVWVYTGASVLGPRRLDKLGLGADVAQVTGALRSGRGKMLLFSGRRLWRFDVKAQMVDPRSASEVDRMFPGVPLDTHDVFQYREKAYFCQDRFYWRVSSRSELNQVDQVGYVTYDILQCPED

With `CCCCOc1ccc(N2CCN(S(=O)(=O)C3(C(=O)NO)CCSCC3)CC2)cc1` [Example 232], the inhibitory constant (Ki) was 2.3 nM at MMP-9 and 26.5 nM at MMP-2.

With `CC(C)Cc1ccc(N2CCN(S(=O)(=O)C3(C(=O)NO)CCOCC3)CC2)c(F)c1` [Example 213], the values for the Ki on MMP-9 and at MMP-2 were 82.4 nM and 12.6 nM, respectively.

For the compound `CCCCOc1ccc(N2CCN(S(=O)(=O)C3(C(=O)NO)CCN(c4ccsc4)CC3)CC2)cc1` [Example 223], the Ki on MMP-9 worked out at 66.1 nM; on MMP-2, 3.46 nM.

As to `CCCC(C)Cc1ccc(N2CCN(S(=O)(=O)C3(C(=O)NO)CCN(CCOC)CC3)CC2)cc1` (centres unmarked) [Example 189], the Ki at MMP-9 is 34.7 nM; on MMP-2, 9.78 nM.

For the compound `CCCCOc1ccc(N2CCN(S(=O)(=O)C3(C(=O)NO)CCN(C(=O)N(CC)CC)CC3)CC2)cc1` [Example 242], the Ki at MMP-9 stood at 1.14 nM; on MMP-2, 0.591 nM.

As to `CCCCCc1ccc(N2CCN(S(=O)(=O)C3(C(=O)NO)CCN(S(C)(=O)=O)CC3)CC2)cc1` [Example 237], the Ki was 2.79 nM at MMP-9 and 2.03 nM on MMP-2.

For the compound `CCCCCc1ccc(N2CCN(S(=O)(=O)C3(C(=O)NO)CCN(S(=O)(=O)N(C)C)CC3)CC2)cc1` [Example 236], the figures for the Ki on MMP-9 and at MMP-2 were 2.61 nM and 2.58 nM, respectively.

For `CCc1ccc(N2CCN(S(=O)(=O)C3(C(=O)NO)CCN(CCOC)CC3)CC2)cc1` [Example 193], the values for the Ki at MMP-9 and on MMP-2 were 3.11 nM and 1.21 nM, respectively.

Consider `COc1ccc(-c2ccc(N3CCN(S(=O)(=O)C4(C(=O)NO)CCOCC4)CC3)nc2)cc1` [Example 61], for which the figures for the Ki at MMP-9 and at MMP-2 were 12.3 nM and 0.39 nM, respectively.

With `O=C(NO)C1(S(=O)(=O)N2CCN(c3ccc(-c4ccc(F)cc4)cc3)CC2)CCOCC1` [Example 208], the Ki on MMP-9 was 0.7 nM; on MMP-2, 0.24 nM.

Consider `CCCCOc1ccc(N2CCN(S(=O)(=O)C3(C(=O)NO)CCS(=O)(=O)CC3)CC2)cc1` [Example 222], for which the Ki was determined as 21.5 nM at MMP-9 and 7.88 nM at MMP-2.

Regarding `CCOCCSc1ccc(N2CCN(S(=O)(=O)C3(C(=O)NO)CCOCC3)CC2)cc1` [Example 234], the Ki worked out at 33.6 nM on MMP-9 and 3.16 nM on MMP-2.

With `O=C(NO)C1(S(=O)(=O)N2CCN(c3nncs3)CC2)CCOCC1` [Example 215], the values for the Ki on MMP-9 and at MMP-2 were above 10000 nM and 2370 nM, respectively.

As to `O=C(NO)C1(S(=O)(=O)N2CCN(c3cnc(CCC(F)(F)C(F)(F)F)cn3)CC2)CCOCC1` [Example 210], the Ki at MMP-9 is 141 nM; at MMP-2 it was 1.04 nM.

With `CCCCC(=O)c1ccc(N2CCN(S(=O)(=O)C3(C(=O)NO)CCN(CCOC)CC3)CC2)cc1` [Example 177], the Ki stood at 18.6 nM at MMP-9 and 2.33 nM on MMP-2.

On to `CCCNC(=O)c1ccc(N2CCN(S(=O)(=O)C3(C(=O)NO)CCN(CCOC)CC3)CC2)cc1` [Example 175], for which the Ki on MMP-9 came out at 440 nM; on MMP-2, 46.9 nM.

With `CCCc1ccc(N2CCN(S(=O)(=O)C3(C(=O)NO)CCN(c4ccc(C)cc4)CC3)CC2)cc1` [Example 171], the Ki came to 6.91 nM at MMP-9 and 6.82 nM on MMP-2.

Turning to `O=C(NO)C1(S(=O)(=O)N2CCN(c3ccc(OC(F)(F)C(F)F)cc3)CC2)CCSCC1` [Example 62], the values for the Ki at MMP-9 and at MMP-2 were 1.5 nM and 0.22 nM, respectively.

As to `CCCCOc1ccc(N2CCN(S(=O)(=O)C3(C(=O)NO)CCN(C(=O)NC(C)(C)C)CC3)CC2)cc1` [Example 240], the figures for the Ki on MMP-9 and at MMP-2 were 1.03 nM and 0.536 nM, respectively.

Regarding `CCCCCc1ccc(N2CCN(S(=O)(=O)C3(C(=O)NO)CCN(S(N)(=O)=O)CC3)CC2)cc1` [Example 205], the Ki on MMP-9 was found to be 248 nM; at MMP-2 it was 2.03 nM.

Consider `CCCCOc1ccc(N2CCN(S(=O)(=O)C3(C(=O)NO)CCN(CCN4CCOCC4)CC3)CC2)cc1` [Example 233], for which the Ki on MMP-9 was determined as 0.972 nM; on MMP-2, 0.771 nM.

As for `COCCN1CCC(C(=O)NO)(S(=O)(=O)N2CCN(c3ccc(OC(F)(F)F)cc3)CC2)CC1` [Example 202], the Ki on MMP-9 is 4.67 nM; on MMP-2, 0.432 nM.

As for `O=C(NO)C1(S(=O)(=O)N2CCN(c3ccc(OCC(F)(F)C(F)(F)F)cc3)CC2)CCOCC1` [Example 212], the Ki at MMP-9 came to 2.91 nM; at MMP-2, 0.54 nM.

As for `CCCCOc1c(F)cc(N2CCN(S(=O)(=O)C3(C(=O)NO)CCN(CCOC)CC3)CC2)cc1F` [Example 165], the Ki on MMP-9 is 14.7 nM; on MMP-2, 0.49 nM.

On to `O=C(NO)C1(S(=O)(=O)N2CCN(c3cnc(CCCC(F)(F)F)cn3)CC2)CCOCC1` [Example 209], for which the Ki on MMP-9 was found to be 157 nM; on MMP-2 it was 3.79 nM.

For the compound `CCCCOc1ccc(N2CCN(S(=O)(=O)C3(C(=O)NO)CCN(CCN(CC)CC)CC3)CC2)cc1` [Example 235], the Ki on MMP-9 was 0.9 nM; on MMP-2, 0.76 nM.

In the case of `CCCCOc1ccc(N2CCN(S(=O)(=O)C3(C(=O)NO)CCN(c4ccc(OC)c(OC)c4)CC3)CC2)cc1` [Example 229], the results for the inhibition constant Ki at MMP-9 and at MMP-2 were 4.64 nM and 2.67 nM, respectively.

With `O=C(NO)C1(S(=O)(=O)N2CCN(c3ccc(Cl)nn3)CC2)CCOCC1` [Example 198], the figures for the Ki on MMP-9 and at MMP-2 were 252 nM and 8.28 nM, respectively.

Consider `CCCCOc1ccc(N2CCN(S(=O)(=O)C3(C(=O)NO)CCN(CCCC(F)(F)F)CC3)CC2)cc1` [Example 238], for which the Ki is 2.49 nM at MMP-9 and 1.63 nM at MMP-2.

As to `CCCCOc1ccc(N2CCN(S(=O)(=O)C3(C(=O)NO)CCN(c4ncccn4)CC3)CC2)cc1` [Example 159], the results for the Ki on MMP-9 and on MMP-2 were 1.93 nM and 0.702 nM, respectively.

Take `CCCCc1ccc(N2CCN(S(=O)(=O)C3(C(=O)NO)CCN(CCOC)CC3)CC2)cc1F` [Example 173]: the results for the Ki at MMP-9 and at MMP-2 were 0.149 nM and 0.209 nM, respectively.

With `COCCN1CCC(C(=O)NO)(S(=O)(=O)N2CCN(c3ccc(CCCCC(C)C)cc3)CC2)CC1` [Example 191], the figures for the inhibition constant Ki at MMP-9 and at MMP-2 were 4.21 nM and 0.986 nM, respectively.

`O=C(NO)C1(S(=O)(=O)N2CCN(c3cnc(CCC(F)(F)F)cn3)CC2)CCOCC1` [Example 218]: the Ki was found to be 2.29 nM at MMP-9 and 1.39 nM on MMP-2.

As to `CCCCOc1ccc(N2CCN(S(=O)(=O)C3(C(=O)NO)CCN(c4nccs4)CC3)CC2)cc1` [Example 157], the Ki on MMP-9 amounted to 4.28 nM; on MMP-2, 1.47 nM.

For `CCCCOc1ccc(N2CCN(S(=O)(=O)C3(C(=O)NO)CCN(C(=O)N4CCCCC4)CC3)CC2)cc1` [Example 243], the Ki was found to be 0.7 nM on MMP-9 and 0.34 nM at MMP-2.

Consider `O=C(NO)C1(S(=O)(=O)N2CCN(c3ccc(COCC(F)(F)C(F)(F)F)cc3)CC2)CCOCC1` [Example 70], for which the Ki on MMP-9 turned out to be 49.7 nM; on MMP-2, 2.57 nM.

For `CCCCOc1ccc(N2CCN(S(=O)(=O)C3(C(=O)NO)CCN(c4ccc(OC)cc4)CC3)CC2)cc1` [Example 249], the results for the Ki at MMP-9 and at MMP-2 were 11.3 nM and 4.98 nM, respectively.

Regarding `COCCN1CCC(C(=O)NO)(S(=O)(=O)N2CCN(c3ccccn3)CC2)CC1` [Example 176], the Ki on MMP-9 is 9.63 nM; on MMP-2 it was 1.59 nM.

In the case of `CCCCCCc1ccc(N2CCN(S(=O)(=O)C3(C(=O)NO)CCN(CCOC)CC3)CC2)cc1` [Example 199], the Ki is 0.892 nM on MMP-9 and 0.633 nM at MMP-2.

Take `CCCCOc1ccc(N2CCN(S(=O)(=O)C3(C(=O)NO)CCN(c4ccc(OC(F)(F)C(F)F)cc4)CC3)CC2)cc1` [Example 65]: the figures for the Ki on MMP-9 and at MMP-2 were 128 nM and 23.6 nM, respectively.

Values taken from US20050209278A1, “Piperidinyl- and piperazinyl-sulfonylmethyl hydroxamic acids and their use as protease inhibitors” (priority 2002, published 2005).
